Measured values as given in publication PMC8838850, “Synthesis, Antimicrobial, Anti-Virulence and Anticancer Evaluation of New 5(4H)-Oxazolone-Based Sulfonamides” (Molecules, 2022).
In brackets after ≈: the same amount, converted by molar mass.

How the values were obtained:
[1] = system: Escherichia coli ATCC 10536; assay: MIC by agar dilution; type: cell-based; details: ATCC10536, 37 °C, 20 h, read-out: Minimum inhibitory concentration (MIC)
Procedure: (§1) The MICs of the synthesized compound were determined by agar dilution method according to the Clinical Laboratory and Standards Institute Guidelines (CLSI, 2015). Briefly, the tested strains were incubated overnight in tryptic soy broth (TSB) (Oxoid, United Kingdom) and then diluted in Muller–Hinton (MH) broth (Oxoid, United Kingdom) to turbidity approximating to the equivalent of 0.5 McFarland standard. The suspensions were further diluted with sterile saline (1:10) and standardized inoculums (approximately 10^4 CFU per spot) were spotted on the surfaces of MH agar (Oxoid, United Kingdom) plates containing different concentrations of tested compounds and a control plate. The MICs were the lowest concentrations that inhibit growth on the plates after incubation at 37 °C for 20 h.

[2] = system: Klebsiella pneumoniae ATCC 27736; assay: MIC by agar dilution; type: cell-based; details: ATCC27736, 37 °C, 20 h, read-out: Minimum inhibitory concentration (MIC)
Procedure: as §1

[3] = system: Micrococcus spp. ATCC 10240; assay: MIC by agar dilution; type: cell-based; details: ATCC10240, 37 °C, 20 h, read-out: Minimum inhibitory concentration (MIC)
Procedure: as §1

[4] = system: Salmonella typhimurium ATCC 14028; assay: MIC by agar dilution; type: cell-based; details: Salmonella enterica, 37 °C, 20 h, read-out: Minimum inhibitory concentration (MIC)
Procedure: as §1

[5] = system: Staphylococcus aureus ATCC 6538; assay: MIC by agar dilution; type: cell-based; details: ATCC6538, 37 °C, 20 h, read-out: Minimum inhibitory concentration (MIC)
Procedure: as §1

[6] = system: Staphylococcus epidermidis ATCC 12228; assay: MIC by agar dilution; type: cell-based; details: ATCC12228, 37 °C, 20 h, read-out: Minimum inhibitory concentration (MIC)
Procedure: as §1

[7] = system: Pseudomonas aeruginosae ATCC 47085; assay: MIC by agar dilution; type: cell-based, Pseudomonas aeruginosa; details: ATCC47085, 37 °C, 20 h, read-out: Minimum inhibitory concentration (MIC)
Procedure: as §1

[8] = system: Aspergillus niger ATCC 16404; assay: MIC by agar dilution (antifungal); type: cell-based; details: for MIC: ATCC16404, read-out: Minimum inhibitory concentration (MIC)
Procedure: as §1

[9] = system: Candida albicans ATCC 10231; assay: MIC by agar dilution (antifungal); type: cell-based; details: for MIC: Candida albicans, ATCC10231, Candida albicans ATCC 10231, read-out: Minimum inhibitory concentration (MIC)
Procedure: as §1

BxPC-3 = assay: SRB cellular proliferation assay; type: cell-based, human; details: Homo sapiens, BxPC-3 cells, mean ± SD (n = 3), read-out: IC50
Procedure: (§2) The pancreatic human cancer cell lines BxPC-3 and Panc-1, the human hepatocellular carcinoma (HepG-2), and the normal immortalized pancreatic cell line HPDE, that were used in this study, were obtained from the American Type Culture Collection (Rockville, USA). Cell lines were cultured and treated with the tested compounds or dimethyl sulfoxide (DMSO) as previously described. Cells were cultivated in DMEM medium (Invitrogen, Carlsbad, CA, USA), supplemented with streptomycin, penicillin and fetal bovine serum (FCS) (Invitrogen, Carlsbad, CA, USA). The sulforhodamine B (SRB) assay was employed to assess the anti-proliferative effects of tested compounds on cancer cells. Cell lines were incubated and regularly treated with DMSO or increasing doses of tested compounds for 48 h. The cells were fixed with 10% trichloroacetic acid and stained with SRB fluorescent dye for 30 min. Then, the bounded SRB dye to cellular proteins was dissolved in 10 mM Tris base after washing excess dye with 1% acetic acid. The absorbance was measured at 510 nm in a reader (Biotek, Winooski, VT, USA).

HepG-2 = assay: SRB cellular proliferation assay; type: cell-based, human; details: Homo sapiens, HepG2, HepG-2 cells, mean ± SD (n = 3), read-out: IC50
Procedure: as §2

Panc-1 = assay: SRB cellular proliferation assay; type: cell-based, human; details: Homo sapiens, Panc-1 cells, mean ± SD (n = 3), read-out: IC50
Procedure: as §2

| SMILES | MIC [1] [µg/mL] | MIC [2] [µg/mL] | MIC [3] [µg/mL] | MIC [4] [µg/mL] | MIC [5] [µg/mL] | MIC [6] [µg/mL] | MIC [7] [µg/mL] | MIC [8] [µg/mL] | MIC [9] [µg/mL] | IC50 (BxPC-3) [µg/mL] | IC50 (HepG-2) [µg/mL] | IC50 (Panc-1) [µg/mL] | melting point [°C] | Minimum inhibitory concentration (MIC) [8] [µg/mL] | Minimum inhibitory concentration (MIC) ([9]; Candida albicans ATCC 10231) [µg/mL] |
| --- | --- | --- | --- | --- | --- | --- | --- | --- | --- | --- | --- | --- | --- | --- | --- |
| Cc1ccc(S(=O)(=O)Nc2ccccc2C2=N/C(=C/c3ccc(OCc4ccccc4)cc3)C(=O)O2)cc1 [Compound 9g, (E)-N-(2-(4-(4-(Benzyloxy)benzylidene)-5-oxo-4,5-dihydrooxazol-2-yl)phenyl)-4-methylbenzenesulfonamide] | 2 (≈ 3.81 µM) | 8 (≈ 15.2 µM) | 2 (≈ 3.81 µM) | 16 (≈ 30.5 µM) | 2 (≈ 3.81 µM) | 2 (≈ 3.81 µM) | 16 (≈ 30.5 µM) | > 32 | > 32 | 25.7 ± 4.89 (≈ 49 µM) | 32.5 ± 1.45 (≈ 62 µM) | 29.3 ± 4.23 (≈ 55.8 µM) | 235 to 237 |  |  |
| Cc1ccc(S(=O)(=O)Nc2ccccc2C2=N/C(=C/c3ccco3)C(=O)O2)cc1 [Compound 9i, (E)-N-(2-(4-(Furan-2-ylmethylene)-5-oxo-4,5-dihydrooxazol-2-yl)phenyl)-4-methylbenzenesulfonamide] | > 32 | > 32 | 2 (≈ 4.9 µM) | > 32 | 2 (≈ 4.9 µM) | 2 (≈ 4.9 µM) | > 32 | > 32 | > 32 | 21.8 ± 2.98 (≈ 53.4 µM) | 27 ± 5.32 (≈ 66.1 µM) | 16.1 ± 1.82 (≈ 39.5 µM) | 191 to 193 |  |  |
| Cc1ccc(S(=O)(=O)Nc2ccccc2C2=N/C(=C/c3cccs3)C(=O)O2)cc1 [Compound 9j, (E)-4-Methyl-N-(2-(5-oxo-4-(thiophen-2-ylmethylene)-4,5-dihydrooxazol-2-yl)phenyl)benzenesulfonamide] | > 32 | > 32 | 8 (≈ 18.8 µM) | > 32 | 16 (≈ 37.7 µM) | 8 (≈ 18.8 µM) | > 32 | > 32 | > 32 | 21.4 ± 2.15 (≈ 50.5 µM) | 25.54 ± 0.144 (≈ 60.2 µM) | 16 ± 3.18 (≈ 37.8 µM) | 196 to 198 |  |  |
| COc1cccc2c1C(=O)c1c(O)c3c(c(O)c1C2=O)C[C@@](O)(C(=O)CO)C[C@@H]3O[C@H]1C[C@H](N)[C@H](O)[C@H](C)O1 [Doxorubicin, reference compound] |  |  |  |  |  |  |  |  |  | 7.31 ± 1.12 (≈ 13.4 µM) | 5.11 ± 0.98 (≈ 9.4 µM) | 6.9 ± 0.93 (≈ 12.7 µM) |  |  |  |
| C[C@@H]1[C@H](O)[C@@H](C)/C=C/C=C/CC/C=C/C=C/C=C/C=C/C(O[C@H]2O[C@H](C)[C@@H](O)[C@H](N)[C@@H]2O)CC2O[C@](O)(CC(O)C(O)CCC(O)CC(O)CC(O)CC(=O)O[C@H]1C)CC(O)C2C(=O)O (stereo partly drawn) [Nystatin, reference compound] |  |  |  |  |  |  |  |  |  |  |  |  |  | 4 (≈ 4.32 µM) | 4 (≈ 4.32 µM) |
| Cc1cc(NS(=O)(=O)c2ccc(N)cc2)no1 [Sulphamethoxazole, reference compound] | 1 (≈ 3.95 µM) | 2 (≈ 7.9 µM) | 1 (≈ 3.95 µM) | 2 (≈ 7.9 µM) | 2 (≈ 7.9 µM) | 2 (≈ 7.9 µM) | 4 (≈ 15.8 µM) |  |  |  |  |  |  |  |  |
